According to article PMC8955938, “c-Myc Protein Level Affected by Unsymmetrical Bisacridines Influences Apoptosis and Senescence Induced in HCT116 Colorectal and H460 Lung Cancer Cells” (International Journal of Molecular Sciences, 2022):
Several values for one entry are separate records, joined by “and”; a condition that tells them apart may be missing. Equal values may be shown once.

Legend:
H460 cells = experiment: Colony-forming assay, H460; assay type: cell-based, human; conditions: for return to proliferation (colony formation): H460, IC90 doses, already after 24 h of incubation; for number of colonies: H460, 120 h treatment at IC90 doses, about 250 cells cultured two weeks in fresh medium
Experimental: The ability of cells to return to proliferation after UAs treatment was measured by a colony-forming assay. After drug treatment, 250 HCT116 and H460 cells were harvested and seeded in a new 6-well plate containing fresh medium without the drug and incubated for two weeks. Untreated cells were used as controls. After two weeks, colonies were fixed with 80% ethanol, stained with crystal violet, counted, and photos were taken.

HCT116 cells [1] = experiment: Annexin V/PI dual staining, HCT116; assay type: cell-based, human; conditions: HCT116, IC90 doses, 120 h
Experimental: Annexin V–FITC binding was performed with an Annexin-V Fluos Staining kit (BD Biosciences, San Jose, CA, USA) according to manufacturer’s protocol. Briefly, after drug treatment, HCT116 and H460 cells (1 × 10^6) were trypsinized, washed twice with ice-cold PBS, pelleted and resuspended in 100 µL of binding buffer containing Annexin-V–FITC and PI. Cells were incubated for 15 min at room temperature in the dark, then diluted with 400 µL of binding buffer and analyzed by flow cytometry with FACS Accuri C6 (BD, San Jose, CA, USA). Cells with low FITC and PI fluorescence were considered viable. Cells that presented high FITC fluorescence but low PI fluorescence were regarded as early apoptotic. Late apoptotic cells presented high FITC and PI fluorescence. Necrotic cells had low FITC fluorescence and high PI fluorescence.

HCT116 cells [2] = experiment: Cell cycle analysis (PI, flow cytometry), HCT116; assay type: cell-based, human; conditions: HCT116, IC90 doses; for cells with more than 4N DNA (polyploid): during the time of incubation (time not specified), control 10%; for cells in G2/M (4N DNA): during the treatment after accumulation at 24 h (time not specified)
Experimental: After drug treatment, trypsinized and floating cells (2 × 10^6) were pooled, washed twice with ice-cold PBS and fixed in 70% (v/v) ethanol overnight at −20 °C. Cells were stained with propidium iodide (PI) (BD Biosciences, San Jose, CA, USA) and monitored by FACS Accuri C6 (BD Biosciences, San Jose, CA, USA).

CCD 841 CoN cells = experiment: MTT cell growth inhibition assay, CCD 841 CoN; assay type: cell-based, human; conditions: CCD 841 CoN normal cells, 72 h
Experimental: To assess cell viability, the MTT assay was used. HCT116, H460, CCD 841 CoN and MRC-5 cells (20,000/well and 50,000/well for cancer and normal cells, respectively) were seeded in 24-well plates, and the following UAs were added at concentrations up to 10 μM: C-2028, C-2041, C-2045 and C-2053. Stock solutions (10 mM) were prepared in sterile water, as well as dilutions, also in water. After 72 h, 3-(4, 5-dimethylthiazol-2-yl)-2,5-diphenyltetrazolium bromide (MTT; 800 μg/well) was added for 3 h, then the formazan crystals were dissolved in DMSO, and absorbance was read at 540 nm. Each point was conducted at least 4 times, and data are expressed relative to controls. The concentration of the drug required to inhibit cells growth by 50 (IC50), 80 (IC80) and 90% (IC90) compared to untreated control cells was determined from the curves plotting survival as a function of dose.

[3] = test system: active caspase-3 in H460 cells; experiment: Active caspase-3 flow cytometry, H460; assay type: cell-based, human; conditions: H460, IC90 doses, 120 h
Experimental: (§1) Caspase-3 activity was determined using Alexa Fluor 647-conjugated anti-active caspase-3 antibody (BD Biosciences, San Diego, CA, USA) according to the manufacturer’s instructions. Briefly, HCT116 and H460 cells (1 × 10^6) were trypsinized, pelleted, washed twice with ice-cold PBS and fixed in Fixation Buffer for 20 min on ice. After fixation, cells were rinsed twice with Perm Wash Buffer, stained with Alexa Fluor 647-conjugated anti-active caspase-3 antibody for 30 min, rinsed with Perm Wash Buffer and analyzed by flow cytometry with FACS Accuri C6 (BD, San Jose, CA, USA).

[4] = test system: cleaved PARP in HCT116 cells; experiment: PARP cleavage flow cytometry, HCT116; assay type: cell-based, human; conditions: HCT116, IC90 doses, up to 120 h
Experimental: as §1, with “PARP cleavage” for “Caspase-3 activity”, “anti-cleaved PARP” for “anti-active caspase-3”

H460 spheroids = test system: H460 spheroids; set-up: method as in PMID 34684841; conditions: H460 3D spheroids; cited from earlier work

SMILES	annexin V positive cells (early and late apoptotic) (HCT116 cells [1])	Poli (polyploid cells) (HCT116 cells [2]; 24 h) [%]	cells in G1 (HCT116 cells [2]; 24 h)	cells in G2/M (HCT116 cells [2]; 24 h) [%]	cells in S (HCT116 cells [2]; 24 h)	cells in Sub-G1 (HCT116 cells [2]; 24 h) [%]	Poli (polyploid cells) (HCT116 cells [2]; 72 h) [%]	cells in G1 (HCT116 cells [2]; 72 h) [%]	cells in G2/M (HCT116 cells [2]; 72 h) [%]	cells in S (HCT116 cells [2]; 72 h) [%]	cells in Sub-G1 (HCT116 cells [2]; 72 h) [%]	Poli (polyploid cells) (HCT116 cells [2]; 120 h) [%]	cells in G1 (HCT116 cells [2]; 120 h)	cells in G2/M (HCT116 cells [2]; 120 h) [%]	cells in S (HCT116 cells [2]; 120 h) [%]	cells with more than 4N DNA (polyploid) (HCT116 cells [2])	IC90 (CCD 841 CoN cells; Homo sapiens) [nM]	IC50 (CCD 841 CoN cells; Homo sapiens, CCD-841CoN) [nM]	cells with active caspase-3 [3] [%]	cells with cleaved PARP [4]	further results
Cc1ccc([N+](=O)[O-])c2c(NCCCN(C)CCCNc3ccc4ncn5c6ccc(O)cc6c(=O)c3c45)c3ccccc3nc12 [Compound C-2045]	~27.8%	4.91 ± 2.33	24.61 ± 2.63%	50.18 ± 2.39	16.33 ± 1.34%	3.90 ± 0.83	12.20 ± 1.85	28.51 ± 4.31	34.06 ± 3.35	6.15 ± 0.70	17.38 ± 4.00	15.17 ± 3.74	22.11 ± 2.54%	22.94 ± 2.48	4.56 ± 1.19	around 15%	5340 ± 1850	~300	51.6	approximately 10%	return to proliferation (colony formation) (H460 cells): completely blocked their return to proliferation; cells in Sub-G1 (HCT116 cells [2]; 120 h): 35.40 ± 5.84% and 35.4% and 30%; cells in G2/M (4N DNA) (HCT116 cells [2]): ~23%; IC50 (CCD 841 CoN cells): 338 ± 27 nM
O=c1c2ccccc2n2cnc3ccc(NCCCN4CCN(CCCNc5c6ccccc6nc6cccc([N+](=O)[O-])c56)CC4)c1c32 [Compound C-2041]	approximately 43%	4.22 ± 2.00	28.75 ± 3.88% and 29%	29.92 ± 4.56	25.97 ± 2.80% and 26%	11.81 ± 1.94	4.47 ± 2.13	22.16 ± 5.06	14.29 ± 1.52	9.59 ± 2.24	48.83 ± 7.71	4.64 ± 2.56	13.63 ± 3.71% and 13.6%	9.44 ± 3.88	3.25 ± 1.05	5%	5120 ± 1090	36 ± 5	35.5	approximately 10%	number of colonies (H460 cells): 77 colonies; inhibition of spheroids growth (H460 spheroids): to the least extent
Cc1ccc([N+](=O)[O-])c2c(NCCCN(C)CCCNc3ccc4ncn5c6ccccc6c(=O)c3c45)c3ccccc3nc12 [Compound C-2053]	18.4%	8.89 ± 1.38	22.34 ± 2.79%	44.81 ± 7.10	19.19 ± 1.77%	3.06 ± 1.09	11.02 ± 2.20	35.18 ± 2.63	36.32 ± 3.14	5.43 ± 1.59	10.45 ± 2.56	14.62 ± 4.62	30.06 ± 4.35%	27.20 ± 4.16	4.10 ± 0.56	around 15%	4100 ± 470	240 ± 40	54.1	least degraded	return to proliferation (colony formation) (H460 cells): completely blocked their return to proliferation; cells in Sub-G1 (HCT116 cells [2]; 120 h): 23.64 ± 4.86% and 23.6%; cells in G2/M (4N DNA) (HCT116 cells [2]): ~23%; inhibition of spheroids growth (H460 spheroids): to the greatest extent
CN(CCCNc1c2ccccc2nc2cccc([N+](=O)[O-])c12)CCCNc1ccc2ncn3c4ccccc4c(=O)c1c23 [Compound C-2028]	26.1%	5.73 ± 0.93	24.89 ± 3.90%	45.89 ± 3.13	19.33 ± 1.58%	3.37 ± 0.69	5.11 ± 1.54	28.63 ± 5.96	21.02 ± 4.86	7.67 ± 2.54	36.97 ± 8.93	5.73 ±2.33	25.39 ± 3.25%	26.26 ± 4.90	4.95 ± 1.90	5%	3690 ± 1080	~20	44.9	approximately 10%	number of colonies (H460 cells): eight; cells in Sub-G1 (HCT116 cells [2]; 120 h): 37.46 ± 9.35% and 37.5% and 30%; cells in G2/M (4N DNA) (HCT116 cells [2]): ~23%; IC50 (CCD 841 CoN cells): 25 ± 7 nM
